According to publication PMC9019507, “OAT10/SLC22A13 Acts as a Renal Urate Re-Absorber: Clinico-Genetic and Functional Analyses With Pharmacological Impacts” (Frontiers in Pharmacology, 2022):
pIC50: −log10 of the molar value.

What was measured:
URAT1/SLC22A12 [1] = molecular target: T1, URAT1/SLC22A12 (Homo sapiens, UniProt Q96S37); assay: inhibition of [[…]-14C]-urate uptake in URAT1-expressing […] cells ([…]); type: cell-based
T1 construct: full-length human URAT1 wild-type, EGFP-fused (pEGFP-C1)
T1 sequence (Q96S37 1-553): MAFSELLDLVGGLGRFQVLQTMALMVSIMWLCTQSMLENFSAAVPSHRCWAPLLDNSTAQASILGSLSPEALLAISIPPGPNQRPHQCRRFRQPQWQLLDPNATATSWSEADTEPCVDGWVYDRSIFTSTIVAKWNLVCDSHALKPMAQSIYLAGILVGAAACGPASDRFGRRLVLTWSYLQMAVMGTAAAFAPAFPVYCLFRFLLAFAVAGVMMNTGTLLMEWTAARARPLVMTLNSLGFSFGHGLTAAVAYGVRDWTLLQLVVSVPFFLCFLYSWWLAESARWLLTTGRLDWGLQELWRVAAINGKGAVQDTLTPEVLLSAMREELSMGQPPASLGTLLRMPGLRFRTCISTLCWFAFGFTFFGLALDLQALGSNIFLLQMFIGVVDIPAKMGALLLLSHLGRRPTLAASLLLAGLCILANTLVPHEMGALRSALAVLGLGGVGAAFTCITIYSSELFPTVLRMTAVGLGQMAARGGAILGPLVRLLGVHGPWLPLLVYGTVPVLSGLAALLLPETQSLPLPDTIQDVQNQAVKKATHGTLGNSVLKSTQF

URAT1/SLC22A12 [2] = molecular target: T1, URAT1/SLC22A12; assay: cell-based; parameters: species or system 293A; inhibition of [8-14C]-urate uptake by URAT1-expressing 293A cells, concentration-response
Procedure: Transiently URAT1-expressing 293A cells were subjected to a cell-based urate transport assay, 48 h after transfection. As a transport buffer, Ringer solution, which contains Cl−, or Cl−-free Hanks’ Balanced Salt Solution (HBSS) containing 10 μM [8-14C]-urate was used. […] Data are expressed as the mean ± SD; n = 4.

OAT10/SLC22A13 [3] = molecular target: T2, OAT10/SLC22A13 (Homo sapiens, UniProt Q9Y226); assay: cell-based; parameters: full-length human OAT10 wild-type, EGFP-fused (pEGFP-N1); species or system 293A
T2 sequence (Q9Y226 whole entry, the tested form may be a part): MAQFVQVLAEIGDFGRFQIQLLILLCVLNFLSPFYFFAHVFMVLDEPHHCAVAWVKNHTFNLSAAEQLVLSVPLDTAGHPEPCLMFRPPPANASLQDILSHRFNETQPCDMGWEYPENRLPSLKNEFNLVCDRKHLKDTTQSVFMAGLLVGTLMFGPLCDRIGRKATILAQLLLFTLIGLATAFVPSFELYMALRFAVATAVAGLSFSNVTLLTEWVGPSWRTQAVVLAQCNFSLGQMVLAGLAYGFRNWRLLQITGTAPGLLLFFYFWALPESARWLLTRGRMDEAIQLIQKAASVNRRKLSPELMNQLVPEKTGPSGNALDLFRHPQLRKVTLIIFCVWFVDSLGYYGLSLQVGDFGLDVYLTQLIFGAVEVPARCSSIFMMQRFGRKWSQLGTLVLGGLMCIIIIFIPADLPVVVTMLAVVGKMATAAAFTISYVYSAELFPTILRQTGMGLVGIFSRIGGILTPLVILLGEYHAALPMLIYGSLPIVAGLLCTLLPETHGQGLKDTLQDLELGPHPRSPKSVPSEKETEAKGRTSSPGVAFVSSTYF
Procedure: Calculation of the Half-Maximal Inhibitory Concentration Values  FIGURE 5 Effects of urate-lowering drugs and their reactive metabolites on the urate transport activity of OAT10. (A) OAT10-mediated urate transport activities in the presence or absence of urate-lowering drugs, including their reactive metabolites, at 100 μM or experimentally maximum concentrations (Table 2). AP, allopurinol; OP, oxypurinol; FEB, febuxostat; TOP, topiroxostat; BBR, benzbromarone; 6-OH BBR, 6-hydroxybenzbromarone; DU, dotinurad; LU, lesinurad; PB, probenecid; FF, fenofibrate; LOS, losartan. (B) Comparison of the effects of each compound (10 μM) on the urate transport activities of URAT1 and OAT10. Values are shown as % of vehicle control (only 0.1% dimethyl sulfoxide); data are expressed as the mean ± SD; n = 3–4 (A,B). ^†† p < 0.01 (two-sided t-test). […] The urate transport activities were measured in the presence of each compound at indicated concentrations for 1 min.

URAT1/SLC22A12 [4] = molecular target: T1, URAT1/SLC22A12; assay: inhibition of [[…]-14C]-urate uptake in URAT1-expressing […] cells; type: cell-based
OAT10/SLC22A13 [5] = molecular target: T2, OAT10/SLC22A13; assay: inhibition of [[…]-14C]-urate uptake in OAT10-expressing […] cells; type: cell-based
OAT10/SLC22A13 [6] = molecular target: T2, OAT10/SLC22A13; assay: concentration-dependent inhibition of [[…]-14C]-urate uptake in OAT10-expressing […] cells; type: cell-based

SMILES | inhibition of [8-14C]-urate uptake in URAT1-expressing 293A cells (10 μM) (URAT1/SLC22A12 [1]) | pIC50 (URAT1/SLC22A12 [2]) | pIC50 (OAT10/SLC22A13 [3]) | pIC50 (URAT1/SLC22A12 [4]) | pIC50 (OAT10/SLC22A13 [5]) | IC50 (OAT10/SLC22A13 [6])
O=C(c1cc(Cl)c(O)c(Cl)c1)N1CS(=O)(=O)c2ccccc21 [DU, dotinurad] | benzbromarone, 6-hydroxybenzbromarone, and dotinurad were more specific to URAT1 than OAT10 | 7.37 | 5.11 | – | – | –
CCCCc1nc(Cl)c(CO)n1Cc1ccc(-c2ccccc2-c2nn[nH]n2)cc1 [LOS, losartan] | – | – | – | 4.92 | 5.60 | –
O=C(O)CSc1nnc(Br)n1-c1ccc(C2CC2)c2ccccc12 [LU, lesinurad] | lesinurad inhibited OAT10 and URAT1 comparably | – | – | – | – | lesinurad inhibited OAT10 and URAT1 comparably
